Here are results for 72 compounds from patent publication US8476197B2, “Aminopropenoates as fungicides” (priority 2009, dated 2013).

What is called Log P is the decadic logarithm of the partition coefficient of the neutral form, usually between octanol and water. Low readings indicate lower lipophilicity, high ones higher lipophilicity.

Marks after values point to notes of the source that are not given here.

The conditions of the first data set: pH 2.3.
As for `CCOC(=O)C(C#N)=C(NC(C)C1CC1)c1cccnc1OCc1ccccc1` (centres unmarked) [Compound 1570], the “Log P” value was 3.08^[c]; 3.08^[b].
Take `CCOC(=O)C(C#N)=C(Nc1cccc(F)c1C)c1cccnc1Cl` [Compound 1610]: the lipophilicity (Log P) is reported as 3.26.
Same read-out and setting: next, `CCOC(=O)C(C#N)=C(NC(C)CSC)c1cccnc1OC` (centres unmarked) [Compound 687]: 2.96; `CCN(C)C(=O)C(C#N)=C(NC(C)C(C)C)c1cccnc1Cl` (centres unmarked) [Compound 1282]: 2.91.

The same data set, now with this note: pH 2.7.
As to `CCOC(=O)C(C#N)=C(NC(C)C1CC1)c1sc(Cl)nc1Cl` (centres unmarked) [Compound 893], the “Log P” value was 3.87^[a].
For `CCOC(=O)C(C#N)=C(NC(C)C(N)=O)c1cccnc1C(F)(F)F` (centres unmarked) [Compound 705], the “Log P” value was 1.91^[a].
For `CCOC(=O)C(C#N)=C(NC(C)c1ccc(Cl)cc1Cl)c1cn(C)nc1C(F)F` (racemic) [Compound 552], the lipophilicity (Log P) was 3.96^[a].
With `CCOC(=O)C(C#N)=C(NC(C)c1nccs1)c1sccc1Br` (centres unmarked) [Compound 85], the log partition coefficient (Log P) is 3.13^[a].
Still for that read-out and setting: next, `COC(=O)C(C#N)=C(NC(C)(C)c1c(F)cccc1F)c1cccnc1Cl` [Compound 385]: 2.98^[a]; `COC(=O)C(C#N)=C(NC(C)C(N)=O)c1sc(C)nc1C(F)(F)F` (centres unmarked) [Compound 634]: 1.69^[a]; `COC(=O)C(C#N)=C(NC(C)C1CCCCC1)c1sc(C)nc1C(F)(F)F` (centres unmarked) [Compound 874]: 4.46^[a].
The same measure, in the same setting: for `CCOC(=O)C(C#N)=C(Nc1ccccc1OC(C)C)c1cn(C)nc1C(F)F` [Compound 471] the value was 3.53^[a]; for `C#CC(C)NC(=C(C#N)C(=O)OCC)c1sccc1Br` (centres unmarked) [Compound 1047], 3.17^[a]; for `CCOC(=O)C(C#N)=C(NCc1ncc(C)s1)c1ccsc1Br` [Compound 247], 3^[a].
On to `CCSC(=O)C(C#N)=C(NC(C)C(C)C)c1cccnc1Cl` (centres unmarked) [Compound 1474], for which the “Log P” value was 3.87^[a].
Regarding `CCOC(=O)C(C#N)=C(NCc1nc(C(F)(F)F)cs1)c1cn(C)nc1C(F)F` [Compound 192], the lipophilicity (Log P) is 2.78^[a].
For `CCOC(=O)C(C#N)=C(NC(C)c1c(Cl)cccc1Cl)c1scnc1Cl` (centres unmarked) [Compound 1477], the log partition coefficient (Log P) is 4^[a].
Take `CCNC(=O)C(C#N)=C(NC(C)c1nccs1)c1cccnc1Cl` (centres unmarked) [Compound 328]: the “Log P” value came out at 2.07.
Still for that read-out and setting: for `CCOC(=O)C(C#N)=C(NCc1nc(C(F)(F)F)cs1)c1sc(C)nc1C(F)(F)F` [Compound 198] the value was 3.35^[a].
Consider `CCCC(NC(=C(C#N)C(=O)OCC)c1cn(C)nc1C(F)F)C(F)(F)F` (centres unmarked) [Compound 1424], for which the lipophilicity (Log P) is 3.53^[a].
As to `CCNC(=O)C(C)NC(=C(C#N)C(=O)OCC)c1cn(C)nc1C(F)F` (racemic) [Compound 1256], the “Log P” value is 1.88^[a].
On the same count and under the same terms, for `CCOC(=O)C(C#N)=C(NC(C)c1nccs1)c1ccnc(SC)c1Cl` (centres unmarked) [Compound 1331] the value was 3.53^[a]; for `CCOC(=O)C(C#N)=C(NC(C)COc1cccc(OC)c1)c1cn(C)nc1C(F)F` (centres unmarked) [Compound 742], 3.35^[a]; for `CCCCCC(C)NC(=C(C#N)C(=O)OCC)c1cn(C)nc1C(F)F` (centres unmarked) [Compound 853], 3.94^[a].
Consider `CCOC(=O)C(C#N)=C(NC(C)COC)c1cn(C)nc1C(Cl)Cl` (centres unmarked) [Compound 1567], for which the “Log P” value was 2.76^[a].
The same measure, in the same setting: next, `CCOC(=O)C(C#N)=C(NC(C)C1CC1)c1ccnc(C(F)(F)F)c1Cl` (centres unmarked) [Compound 1622]: 3.85^[a].
Same read-out and setting: for `CCOC(=O)C(C#N)=C(Nc1ccc(N(C)C)cc1)c1sc(C)nc1C(F)(F)F` [Compound 493] the value was 3.71^[a].
The same measure, in the same setting: for `CCOC(=O)C(C#N)=C(NC(C)CCc1ccccc1)c1cn(C)nc1C(F)F` (mixture of isomers) [Compound 453] the value was 3.62^[a]; for `CCOC(=O)C(C#N)=C(NC(C)c1ccccn1)c1ccncc1C(F)(F)F` (racemic) [Compound 1394], 2.7^[a]; for `CCOC(=O)C(C#N)=C(NC(C)C(N)=O)c1ccncc1Cl` (centres unmarked) [Compound 722], 1.65^[a].
For the compound `CC(C)C(C)NC(=C(C#N)C(=O)NCCC#N)c1cn(C)nc1C(F)F` (centres unmarked) [Compound 1299], the “Log P” value was 2.44^[a].
Turning to `CCOC(=O)C(C#N)=C(NC(C)COCC(C)(C)C)c1cccnc1Cl` (centres unmarked) [Compound 1178], the “Log P” value is 4.34^[a].
Still for that read-out and setting: next, `CCOC(=O)C(C#N)=C(NC(C)c1ccc(F)cc1)c1sccc1C(F)(F)F` (mixture of isomers) [Compound 438]: 4.14^[a]; `CCOC(=O)C(C#N)=C(NCCOc1ccccc1Br)c1cn(C)nc1C(F)F` [Compound 1347]: 3.35^[a].
Same read-out and setting: for `CCOC(=O)C(C#N)=C(NC(C)C(C)C)c1cn(C)nc1OC` (centres unmarked) [Compound 969] the value was 3.06^[a]; for `CCOC(=O)C(C#N)=C(Nc1cccc(Cl)c1)c1sc(C)nc1C(F)(F)F` [Compound 513], 3.89^[a]; for `CCOC(=O)C(C#N)=C(NC(C)CSc1cc(Cl)ccc1Cl)c1cn(C)nc1C(F)F` (racemic) [Compound 1235], 4.08^[a].
On the same count and under the same terms, next, `COC(=O)C(C#N)=C(NC(C)CCc1ccccc1)c1sc(C)nc1C(F)(F)F` (mixture of isomers) [Compound 441]: 4.01^[a]; `CCOC(=O)C(C#N)=C(NC(C)c1ccc(Cl)cc1)c1c(C)nn(C)c1F` (centres unmarked) [Compound 352]: 3.62^[a].
For the compound `COC(=O)C(C#N)=C(NC(C)c1ncc(Br)cc1Cl)c1cccnc1Cl` (centres unmarked) [Compound 124], the lipophilicity (Log P) is 3.24^[a].
Same read-out and setting: for `CC(NC(=C(C#N)C(=O)N(C)C)c1cn(C)nc1C(F)F)c1nccs1` (centres unmarked) [Compound 1296] the value was 1.81^[a]; for `CC(NC(=C(C#N)C(=O)N1CCOCC1)c1cn(C)nc1C(F)F)c1nccs1` (centres unmarked) [Compound 1327], 1.79^[a]; for `CCOC(=O)/C(C#N)=C(\NC(C)c1nccs1)c1sccc1Cl` (centres unmarked) [Compound 149], 3.09^[a].
Turning to `CCOC(=O)C(C#N)=C(Nc1ccccc1SC)c1sccc1C(F)(F)F` [Compound 369], the “Log P” value is 4.01^[a].
`CCOC(=O)C(C#N)=C(NCc1ccc(C)c(C)n1)c1cccnc1Cl` [Compound 1526]: the “Log P” value is 1.91^[a].
On the same count and under the same terms, next, `CCOC(=O)C(C#N)=C(NC(C)c1ccccn1)c1cccnc1C(F)F` (racemic) [Compound 264]: 2.46^[a].
The same measure, in the same setting: for `CCOC(=O)C(C#N)=C(NC(C)C(C)C)c1ncc(C(F)(F)F)cc1Cl` (centres unmarked) [Compound 935] the value was 4.29^[a]; for `CCCc1nccc(C(NC(C)c2ccccn2)=C(C#N)C(=O)OCC)c1Cl` (racemic) [Compound 1397], 3.29^[a]; for `CCOC(=O)C(C#N)=C(NC(C#N)c1ccc(Cl)cc1Cl)c1cn(C)nc1C(F)F` (centres unmarked) [Compound 1231], 3.55^[a].
On the same count and under the same terms, for `CCOC(=O)C(C#N)=C(NC(C)C1=NCCS1)c1cccnc1Cl` (centres unmarked) [Compound 1629] the value was 2.5^[a]; for `CCOC(=O)C(C#N)=C(NC(C)c1cccc(Cl)n1)c1cccnc1Cl` (centres unmarked) [Compound 1439], 3.2^[a]; for `CCOC(=O)C(C#N)=C(NC(C)c1ccccc1)c1cn(C)nc1C(F)F` (mixture of isomers) [Compound 456], 3.17^[a].
As for `CCOCC(CC)NC(=C(C#N)C(=O)OC)c1cccnc1Cl` (centres unmarked) [Compound 625], the “Log P” value is 2.76^[a].
Consider `CCOC(=O)C(C#N)=C(NC(C)c1nc(C)c(C)s1)c1nsc(Cl)c1Cl` (racemic) [Compound 53], for which the “Log P” value was 4.01^[a].
On the same count and under the same terms, next, `CCOC(=O)C(C#N)=C(NC(C)CF)c1cn(C)nc1OC` (centres unmarked) [Compound 748]: 2.23^[a]; `CCOC(=O)C(C#N)=C(NC(C)c1cc(Cl)ccc1Cl)c1cccnc1Cl` (racemic) [Compound 1558]: 4.13^[a].
Same read-out and setting: next, `CCOC(=O)C(C#N)=C(Nc1ccccc1SC)c1ccnc(Cl)c1Cl` [Compound 1388]: 3.89^[a].
The same measure, in the same setting: for `CCOC(=O)C(C#N)=C(NC(C)c1ncccn1)c1cccnc1Cl` (centres unmarked) [Compound 329] the value was 2.13^[a].
For `CCOC(=O)C(C#N)=C(NC(C)c1nccs1)c1cnn(C)c1Cl` (centres unmarked) [Compound 1501], the “Log P” value is 2.42^[a].
Same read-out and setting: next, `CCOC(=O)C(C#N)=C(Nc1cccc(Cl)c1)c1cn(C)nc1C(F)F` [Compound 477]: 3.21^[a]; `CCOC(=O)C(C#N)=C(NC(C)C(N)=O)c1nc(Cl)ccc1Cl` (centres unmarked) [Compound 698]: 1.97^[a]; `CCOC(=O)C(C#N)=C(NC1CC1C(F)(F)F)c1cccnc1Cl` (centres unmarked) [Compound 1054]: 2.9^[a].
In the case of `CCOC(=O)C(C#N)=C(Nc1cccc(SC)c1)c1sccc1C(F)(F)F` [Compound 482], the “Log P” value is 4.04^[a].
`CCOC(=O)C(C#N)=C(NC(C)c1ccc(Cl)cc1)c1cn(C)nc1C(F)(F)F` (centres unmarked) [Compound 430]: the “Log P” value was 3.95^[a].
Same read-out and setting: for `CCOC(=O)C(C#N)=C(NC(C)c1ncc(C)s1)c1sccc1Br` (racemic) [Compound 169] the value was 3.46^[a]; for `CCOC(=O)C(C#N)=C(NC(C)c1nccs1)c1sccc1C(F)(F)F` (centres unmarked) [Compound 96], 3.31^[a].

Still in this data set, the particulars now being: pH 7.5.
Turning to `CCOC(=O)C(C#N)=C(NC(C)C1CC1)c1cccnc1OCc1ccccc1` (centres unmarked) [Compound 1570], the “Log P” value was 3.08^[c]; 3.08^[b].
On to `CCNC(=O)C(C#N)=C(NC(C)c1nccs1)c1cccnc1Cl` (centres unmarked) [Compound 328], for which the log partition coefficient (Log P) is given as 2.05.
`CCOC(=O)C(C#N)=C(Nc1cccc(F)c1C)c1cccnc1Cl` [Compound 1610]: the lipophilicity (Log P) worked out at 3.24.
Same read-out and setting: for `CCOC(=O)C(C#N)=C(NC(C)c1ccccn1)c1ccc(C)nc1Cl` (centres unmarked) [Compound 1380] the value was 2.67; for `COC(=O)C(C#N)=C(NC(C)c1nc2ccccc2s1)c1cccnc1Cl` (centres unmarked) [Compound 15], 2.95; for `CCOC(=O)C(C#N)=C(NC(C)Cn1cncn1)c1cccnc1Cl` (centres unmarked) [Compound 84], 1.59.
Take `COC(=O)C(C#N)=C(NC(C)c1nccs1)c1cccnc1Br` (centres unmarked) [Compound 21]: the log partition coefficient (Log P) turned out to be 2.12.
For the compound `CCOC(=O)C(C#N)=C(NC(C)CSC)c1cccnc1OC` (centres unmarked) [Compound 687], the lipophilicity (Log P) was 2.95.
Consider `CCN(C)C(=O)C(C#N)=C(NC(C)C(C)C)c1cccnc1Cl` (centres unmarked) [Compound 1282], for which the lipophilicity (Log P) was 2.9.
The same measure, in the same setting: next, `COC(=O)C(C#N)=C(NC(C)C(N)=O)c1cccnc1Cl` (centres unmarked) [Compound 563]: 1.18.
Still for that read-out and setting: next, `COC(=O)C(C#N)=C(NC(C)CSC)c1cccnc1Cl` (racemic) [Compound 576]: 2.38.
